According to US6784172B2, “Processes for preparation of cyclopenta[b][1,4]diazepino[6,7,1-hi]indoles and derivatives” (Wyeth, priority 2000, dated 2004):

melting point	SMILES
66 to 68 °C	c1cc2c3c(c1)c1c(n3CCNC2)CCC1 [Example 1, 1,2,3,4,9,10-Hexahydro-8H-cyclopenta[b][4,1]diazepino[6,7,1-hi]indole]
111 to 113 °C	CC(=O)N1CCN2c3c(cccc3C3CCCC32)C1 (racemic) [Example 3, 3-Acetyl-1,2,3,4,8,9,10,10a-octahydro-7bH-cyclopenta[b][1,4]diazepino[6,7,1-hi]indole]
